Data reported in patent US20050079529A1, “Very large scale immobilized polymer synthesis” (Affymetrix, INC., priority 1989, published 2005).
“Also recorded” adds a separate entry of the source.

system: not listed separately; assay: Photolysis of N-protected L-phenylalanine in solution; format: physicochemical; details: 5 mM H2SO4/Dioxane; 0.10 mM protected phenylalanine
Experimental: The photoremovable protecting groups of the present invention are readily removed. For example, the photolysis of N-protected L-phenylalanine in solution having different photoremovable protecting groups was analyzed, and the results are presented in the following table: […]

Q: Which “t1/2 in seconds, photolysis of protected L-Phe-OH” value (“t1/2 in seconds, photolysis” below) does the source give for COc1cc(COC(=O)NC(Cc2ccccc2)C(=O)O)c([N+](=O)[O-])cc1OC (stereo not shown) [NVOC, reference compound] here?
A: 1.63 min

Q: Which “t1/2 in seconds, photolysis” value does the source give for CC(OC(=O)NC(Cc1ccccc1)C(=O)O)c1cc2c(cc1[N+](=O)[O-])OCO2 (stereo not shown) [MeNPOC] here?
A: 0.367 min

Q: For O=C(NC(Cc1ccccc1)C(=O)O)OCc1ccccc1[N+](=O)[O-] (stereo not shown) [NBOC, reference compound], which “t1/2 in seconds, photolysis” value is on record?
A: 26.25 min

same assay, conditions: Dioxane; 0.10 mM protected phenylalanine

Q: Which “t1/2 in seconds, photolysis” value does the source give for COc1cc(COC(=O)NC(Cc2ccccc2)C(=O)O)c([N+](=O)[O-])cc1OC (stereo not shown) [NVOC, reference compound] here?
A: 1.83 min

Q: For CC(OC(=O)NC(Cc1ccccc1)C(=O)O)c1cc2c(cc1[N+](=O)[O-])OCO2 (stereo not shown) [MeNPOC], which “t1/2 in seconds, photolysis” value is on record?
A: 0.317 min

Q: For O=C(NC(Cc1ccccc1)C(=O)O)OCc1ccccc1[N+](=O)[O-] (stereo not shown) [NBOC, reference compound], which “t1/2 in seconds, photolysis” value is on record?
A: 21.47 min

system: antibody 3E7; assay: 10-step binary synthesis array of 1,024 peptides, fluorescence scan after antibody 3E7 and fluoresceinated antibody; format: binding, mouse; details: additional binary syntheses based on peptides on phage leads

Q: For YGAFQ: SEQ ID NO:20, which “fluorescence signal relative to YGGFM” value is on record?
A: stronger fluorescence signals than does YGGFM

Q: For YGAFMQ: SEQ ID NO:18, which “fluorescence signal relative to YGGFM” value is on record?
A: stronger fluorescence signals than does YGGFM

Q: For YGAFM: SEQ ID NO:19, which “fluorescence signal relative to YGGFM” value is on record?
A: stronger fluorescence signals than does YGGFM

system: antibody 3E7; assay: as above; format: binding, mouse; details: not given
Description: The power of the binary masking strategy can be appreciated by the outcome of a 10-step synthesis that produced 1,024 peptides. The polynomial expression for this 10-step binary synthesis was: (f+Ø)(Y+Ø)(G+Ø)(A+Ø)(G+Ø)(T+Ø)(F+Ø)(L+Ø)(S+Ø)(F+Ø)
Each peptide occupied a 400×400 μm square. A 32×32 peptide array (1,024 peptides, including the null peptide and 10 peptides of l=1, and a limited number of duplicates) was clearly evident in a fluorescence scan following side group deprotection and treatment with the antibody 3E7 and fluoresceinated antibody. Each synthesis site was a 400×400 μm square.
(x=20, y=9). […] The median value of the array was 4,800 counts.
The identity of each peptide in the array could be determined from its x and y coordinates (each range from 0 to 31) and the map of FIG. 29. The chemical units at positions 2, 5, 6, 9, and 10 are specified by the y coordinate and those at positions 1, 3, 4, 7, 8 by the x coordinate. All but one of the peptides was shorter than 10 residues. For example, the peptide at x=12 and y=3 is YGAGF (SEQ ID NO:30; […]).
It is often desirable to deduce a binding affinity of a given peptide from the measured fluorescence intensity. Conceptually, the simplest case is one in which a single peptide binds to a univalent antibody molecule. The fluorescence scan is carried out after the slide is washed with buffer for a defined time. The order of fluorescence intensities is then a measure primarily of the relative dissociation rates of the antibody-peptide complexes. If the on-rate constants are the same (e.g., if they are diffusion-controlled), the order of fluorescence intensities will typically correspond to the order of binding affinities. However, the situation is sometimes more complex because a bivalent primary antibody and a bivalent secondary antibody are used. The density of peptides in a synthesis area corresponded to a mean separation of […], which would allow multivalent antibody-peptide interactions. […] For a more complete analysis of how the present invention can be extended to the binding affinity of an immobilized ligand to a receptor, see U.S. Ser. No. 07/796,947, filed Nov. 22, 1991, and incorporated herein by reference.

Q: With YGGFLS: SEQ ID NO:7 as the compound, how does the “rank of fluorescence in the 1,024 peptide array” value (from here on “rank of fluorescence”) read?
A: most highly fluorescent

Q: Which “rank of fluorescence” value does the source give for YGGLS: SEQ ID NO:14 here?
A: most highly fluorescent

Q: Which “rank of fluorescence” value does the source give for YGAFLSF here?
A: most highly fluorescent

Q: Which “rank of fluorescence” value does the source give for YGAFLF: SEQ ID NO:12 here?
A: most highly fluorescent

Q: For YGAL: SEQ ID NO:11, which “rank of fluorescence” value is on record?
A: most highly fluorescent

Q: With YGGFS: SEQ ID NO:10 as the compound, how does the “rank of fluorescence” value read?
A: most highly fluorescent

Q: With YGAFLS: SEQ ID NO:4 as the compound, how does the “rank of fluorescence” value read?
A: brightest element of the array; also recorded: most highly fluorescent

Q: Which “rank of fluorescence” value does the source give for YGALS: SEQ ID NO:9 here?
A: most highly fluorescent

Q: Which “rank of fluorescence” value does the source give for YGAFF: SEQ ID NO:13 here?
A: most highly fluorescent

Q: With YGAFSF: SEQ ID NO:16 as the compound, how does the “rank of fluorescence” value read?
A: most highly fluorescent

Q: With YGAFS: SEQ ID NO:5 as the compound, how does the “rank of fluorescence” value read?
A: most highly fluorescent

Q: Which “rank of fluorescence” value does the source give for YGAFL: SEQ ID NO:6 here?
A: most highly fluorescent

Q: For YGAF: SEQ ID NO:8, which “rank of fluorescence” value is on record?
A: most highly fluorescent

system: Herz antibody; assay: YGGFL/GGFL checkerboard slide exposed to Herz antibody and goat anti-mouse fluorescein conjugate; format: binding; details: 500×500 μm mask
Experimental: A first antibody, known as the Herz antibody, was applied to the surface of the slide for 45 minutes at 2 μg/ml in a supercocktail (containing 1% BSA and 1% ovalbumin also in this case). A second antibody, goat anti-mouse fluorescein conjugate, was then added at 2 μg/ml in the supercocktail buffer, and allowed to incubate for 2 hours.
Monomer-by-monomer synthesis of YGGFL and GGFL in alternate squares was performed on a slide in a checkerboard pattern and the resulting slide was exposed to the Herz antibody. This experiment and the results thereof are illustrated in FIGS. 13A, 13B, 13C, and 13D.
In FIG. 13A, a slide is shown which is derivatized with t-BOC-aminopropyl-triethoxysilane. The slide was treated with TFA to remove the t-BOC protecting group. t-BOC-6-aminocaproic acid was then coupled onto the aminopropyl groups. The aminocaproic acid serves as a spacer between the aminopropyl group and the peptide to be synthesized. The amino end of the spacer was deprotected and coupled to NVOC-Leucine. The entire slide was then illuminated with 12 mW of 325 nm broadband illumination. The slide was then coupled with NVOC-Phenylalanine and washed. The entire slide was again illuminated, then coupled to NVOC-Glycine and washed. […]
The resulting fluorescence scan is shown in FIG. 13C, and the scale for the fluorescence intensity is again given on the right. […]

Q: Which “recognition by Herz antibody” value does the source give for GGFL: tetrapeptide, SEQ ID NO:15 here?
A: not recognized

system: Herz antibody; assay: 50 μm checkerboard of YGGFL and YPGGFL, antibody fluorescence plot; format: binding, mouse; details: not given

Q: Which “recognition / binding by the antibody” value does the source give for YPGGFL: peptide, SEQ ID NO:3 here?
A: does not bind significantly

system: antibody 3E7; assay: Fluorescence scan of 50 μm YGGFL/PGGFL checkerboard array probed with antibody 3E7 and fluoresceinated goat anti-mouse antibody; format: binding; details: 2 μg/ml 3E7; 50 μm checkerboard
Experimental: FIG. 11 is a flow chart illustrating another example of the invention. Carboxy-activated NVOC-leucine was allowed to react with an aminated substrate. The carboxy activated HOBT ester of leucine and other amino acids used in this synthesis was formed by mixing 0.25 mmol of the NVOC amino protected amino acid with 37 mg HOBT (1-hydroxybenzotriazole), 111 mg BOP (benzotriazolyl-n-oxy-tris (dimethylamino)-phosphoniumhexa-fluorophosphate) and 86 μl DIEA (diisopropylethylamine) in 2.5 ml DMF. The NVOC protecting group was removed by uniform illumination. Carboxy-activated NVOC-phenylalanine was coupled to the exposed amino groups for 2 hours at room temperature, and then washed with DMF and methylene chloride. Two unmasked cycles of photodeprotection and coupling with carboxy-activated NVOC-glycine were carried out. The surface was then illuminated through a chrome on glass 50 μm checkerboard pattern mask. Carboxy-activated Na-tBOC-O-tButyl-L-tyrosine was then added. […]
The array of pentapeptides was probed with a mouse monoclonal antibody directed against β-endorphin. […] The surface was scanned with an epi-fluorescence microscope. […] The height of each spike in this display is linearly proportional to the integrated fluorescence intensity in a 2.5 μm pixel. […] There is little variation in the fluorescence intensity of different YGGFL squares. […]

Q: With Pro-Gly-Gly-Phe-Leu (PGGFL) as the compound, how does the “binding of antibody 3E7 to surface peptide” value read?
A: does not bind

system: antibody 3E7; assay: not given; details: known from Meo et al., Proc. Natl. Acad. Sci. USA (1983) 80:4084; cited from earlier work

Q: For “YGGFM: SEQ ID NO:21, the immunogen used to obtain antibody 3E7”, which “affinity of binding by antibody 3E7” value is on record?
A: nanomolar affinity

system: anti-dynorphin B monoclonal antibody; assay: Dynorphin B deletion peptide array, relative binding of anti-dynorphin B monoclonal antibody by fluorescence intensity; details: mean ± spread over N synthesis sites
Experimental: The binding epitope on dynorphin B for the anti-dynorphin B antibody described above was determined by deleting various amino acids and combinations of amino acids from the overall sequence of dynorphin B. The peptides containing these various deletions were prepared on a substrate by the general protection-deprotection methods described above. Then the substrate was exposed to the anti-dynorphin B monoclonal antibody and a fluorescence image was produced as shown in FIG. 33.
From the intensity distribution contained in this plot, it was possible to determine the relative binding affinity to various of the peptides.

Q: With “F L R R Q F K: deletion peptide from the dynorphin B sequence (FLRRQFK)” as the compound, how does the “RELATIVE INTENSITY” value read?
A: 10.2 ± 2.8

Q: Which “RELATIVE INTENSITY” value does the source give for “L R R Q F K V V T: deletion peptide from the dynorphin B sequence (LRRQFKVVT)” here?
A: 86.9 ± 13.7

Q: With “K V V T: deletion peptide from the dynorphin B sequence, SEQ ID NO:36 (KVVT)” as the compound, how does the “RELATIVE INTENSITY” value read?
A: 10.7 ± 1.8

Q: With “R R Q F K V V T: deletion peptide from the dynorphin B sequence (RRQFKVVT)” as the compound, how does the “RELATIVE INTENSITY” value read?
A: 98.8 ± 0.9

Q: For “F L R R Q F K V V T: deletion peptide from the dynorphin B sequence (FLRRQFKVVT)”, which “RELATIVE INTENSITY” value is on record?
A: 84.2 ± 28.2

Q: Which “RELATIVE INTENSITY” value does the source give for “F L R R Q F: deletion peptide from the dynorphin B sequence (FLRRQF)” here?
A: 8.5 ± 3.4

Q: With “Q F K V V T: deletion peptide from the dynorphin B sequence (QFKVVT)” as the compound, how does the “RELATIVE INTENSITY” value read?
A: 36.2 ± 16.0

Q: Which “RELATIVE INTENSITY” value does the source give for “F L R R Q F K V V: deletion peptide from the dynorphin B sequence (FLRRQFKVV)” here?
A: 37.4 ± 14.6

Q: For “F L R R Q F K V: deletion peptide from the dynorphin B sequence (FLRRQFKV)”, which “RELATIVE INTENSITY” value is on record?
A: 13.7 ± 3.0

same assay, conditions: second value in parentheses

Q: For “F L R R Q F K V V T: deletion peptide from the dynorphin B sequence (FLRRQFKVVT)”, which “RELATIVE INTENSITY, value in parentheses (ADJUSTED)” value is on record?
A: (98.3 ± 1.2)

Q: Which “RELATIVE INTENSITY, value in parentheses (ADJUSTED)” value does the source give for “F L R R Q F K V V: deletion peptide from the dynorphin B sequence (FLRRQFKVV)” here?
A: (30.5 ± 5.4)
